The target in this assay is T1, human vasopressin V1b receptor (Homo sapiens, UniProt P47901).
T1 construct: expressed in transfected cells; host or cells: CHO-K1 (cell line hV1b_3H2_CHO), membrane preparation
T1 sequence (P47901 1-424): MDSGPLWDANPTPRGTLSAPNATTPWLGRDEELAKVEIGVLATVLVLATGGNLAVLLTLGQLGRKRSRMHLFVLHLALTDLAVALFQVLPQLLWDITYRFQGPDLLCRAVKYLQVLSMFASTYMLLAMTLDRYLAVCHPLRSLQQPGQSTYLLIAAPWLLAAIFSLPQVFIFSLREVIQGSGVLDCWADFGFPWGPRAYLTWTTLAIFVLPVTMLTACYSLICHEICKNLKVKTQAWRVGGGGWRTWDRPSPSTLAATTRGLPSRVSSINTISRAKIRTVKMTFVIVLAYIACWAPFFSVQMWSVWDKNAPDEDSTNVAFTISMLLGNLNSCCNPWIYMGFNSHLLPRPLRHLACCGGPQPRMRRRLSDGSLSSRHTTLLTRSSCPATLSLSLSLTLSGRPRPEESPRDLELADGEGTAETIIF
Description: Vasopressin V1b receptor binding test. The settings on record: membranes of CHO-K1 cells with human V1b receptor, displacement of 1.5 nM 3H-AVP; for compounds with more than one stereogenic center the diastereomer with greater affinity. An outline of the steps:
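Radioligand displacement on membranes carrying human V1b receptor in 50 mM tris, 10 mM MgCl2, 0.1% BSA, pH 7.4, 2% DMSO final; 60 min at room temperature, nonspecific binding with 1 μM AVP. Free ligand removed by filtration, bound counted by liquid scintillation, Ki from nonlinear regression of triplicates.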

For `COc1ccc(S(=O)(=O)N2C(=O)C(c3cc(CN4CCCC4)ccc3OC)(N3CCC[C@H]3c3ncon3)c3cc(Cl)ccc32)cc1` (stereo partly drawn) [Example 210, 5-Chloro-1-(4-methoxybenzenesulfonyl)-3-(2-methoxy-5-pyrrolidin-1-ylmethylphenyl)-3-((S)-2-[1,2,4]oxadiazol-3-yl-pyrrolidin-1-yl)-1,3-dihydroindol-2-one], the Ki is < 10 nM. The value for `COc1ccc(S(=O)(=O)N2C(=O)C(c3ccc(CN4CCNCC4)cc3OC)(N3CCC[C@H]3c3ncco3)c3cc(Cl)c(F)cc32)cc1` (stereo partly drawn) [Example 211, 5-Chloro-6-fluoro-1-(4-methoxybenzenesulfonyl)-3-(2-methoxy-4-piperazin-1-ylmethylphenyl)-3-((S)-2-oxazol-2-yl-pyrrolidin-1-yl)-1,3-dihydroindol-2-one] was < 10 nM. The value for `COc1ccc(S(=O)(=O)N2C(=O)C(c3ccc(CN4CCN(CCO)CC4)cc3OC)(N3CCC[C@H]3c3ncco3)c3cc(Cl)c(F)cc32)cc1` (stereo partly drawn) [Example 212, 5-Chloro-6-fluoro-3-{4-[4-(2-hydroxyethyl)piperazin-1-ylmethyl]-2-methoxyphenyl}-1-(4-methoxybenzenesulfonyl)-3-((S)-2-oxazol-2-yl-pyrrolidin-1-yl)-1,3-dihydroindol-2-one] was < 10 nM; that for `COc1ccc(S(=O)(=O)N2C(=O)C(c3cc(CN4CCCC4)ccc3OC)(N3C[C@H](OC(C)(C)C)C[C@H]3c3ncco3)c3cc(Cl)ccc32)cc1` (stereo partly drawn) [Example 213, 3-((2S,4R)-4-tert-butoxy-2-oxazol-2-yl-pyrrolidin-1-yl)-5-chloro-1-(4-methoxybenzenesulfonyl)-3-(2-methoxy-5-pyrrolidin-1-ylmethylphenyl)-1,3-dihydroindol-2-one] was 10 to 100 nM. For `COc1ccc(S(=O)(=O)N2C(=O)C(c3cc(CN4CCN(C)CC4)ccc3OC)(N3C[C@H](OC(C)(C)C)C[C@H]3c3ncco3)c3cc(Cl)ccc32)cc1` (stereo partly drawn) [Example 214, 3-((2S,4R)-4-tert-butoxy-2-oxazol-2-yl-pyrrolidin-1-yl)-5-chloro-1-(4-methoxybenzenesulfonyl)-3-[2-methoxy-5-(4-methylpiperazin-1-ylmethyl)phenyl]-1,3-dihydroindol-2-one] the value was < 10 nM; for `COc1ccc(S(=O)(=O)N2C(=O)C(c3cc(CN4CCN(CCO)CC4)ccc3OC)(N3C[C@H](OC(C)(C)C)C[C@H]3c3ncco3)c3cc(Cl)ccc32)cc1` (stereo partly drawn) [Example 215, 5-Chloro-3-((2S,4R)-4-tert-butoxy-2-oxazol-2-yl-pyrrolidin-1-yl)-3-{5-[4-(2-hydroxyethyl)piperazin-1-ylmethyl]-2-methoxyphenyl}-1-(4-methoxybenzenesulfonyl)-1,3-dihydroindol-2-one], 10 to 100 nM. As to `CCNCc1ccc(OC)c(C2(N3CCC[C@H]3c3ncon3)C(=O)N(S(=O)(=O)c3ccc(OC)cc3)c3ccc(Cl)cc32)c1` (stereo partly drawn) [Example 216, 5-Chloro-3-(5-ethylaminomethyl-2-methoxyphenyl)-1-(4-methoxybenzenesulfonyl)-3-((S)-2-[1,2,4]oxadiazol-3-yl-pyrrolidin-1-yl)-1,3-dihydroindol-2-one], the Ki is < 10 nM. For `CNCc1ccc(C2(N3C[C@H](O)C[C@H]3c3ncco3)C(=O)N(S(=O)(=O)c3ccc(OC)cc3)c3ccc(Cl)cc32)c(OC)c1` (stereo partly drawn) [Example 217, 5-Chloro-3-((2S,4R)-4-hydroxy-2-oxazol-2-yl-pyrrolidin-1-yl)-1-(4-methoxybenzenesulfonyl)-3-(2-methoxy-4-methylaminomethylphenyl)-1,3-dihydroindol-2-one] the value was < 10 nM. The value for `COc1ccc(S(=O)(=O)N2C(=O)C(c3cc(CN(C)C)ccc3OC)(N3C[C@H](OC(C)(C)C)C[C@H]3c3ncco3)c3cc(Cl)ccc32)cc1` (stereo partly drawn) [Example 218, 3-((2S,4R)-4-tert-butoxy-2-oxazol-2-yl-pyrrolidin-1-yl)-5-chloro-3-(5-dimethylaminomethyl-2-methoxyphenyl)-1-(4-methoxybenzenesulfonyl)-1,3-dihydroindol-2-one] was 10 to 100 nM. For `CCNCc1ccc(OC)c(C2(N3C[C@H](OC(C)(C)C)C[C@H]3c3ncco3)C(=O)N(S(=O)(=O)c3ccc(OC)cc3)c3ccc(Cl)cc32)c1` (stereo partly drawn) [Example 219, 3-((2S,4R)-4-tert-butoxy-2-oxazol-2-yl-pyrrolidin-1-yl)-5-chloro-3-(5-ethylaminomethyl-2-methoxyphenyl)-1-(4-methoxybenzenesulfonyl)-1,3-dihydroindol-2-one] the value was < 10 nM. In the case of `COc1ccc(S(=O)(=O)N2C(=O)C(c3cc(CN4CCOCC4)ccc3OC)(N3C[C@H](O)C[C@H]3c3ncco3)c3cc(C#N)ccc32)cc1` (stereo partly drawn) [Example 220, 5-Cyano-3-((2S,4R)-4-hydroxy-2-oxazol-2-yl-pyrrolidin-1-yl)-1-(4-methoxybenzenesulfonyl)-3-(2-methoxy-5-morpholin-4-ylmethylphenyl)-1,3-dihydroindol-2-one], the Ki fell in the range of 10 to 100 nM. The value for `CCN1CCN(Cc2ccc(OC)c(C3(N4C[C@H](O)C[C@H]4c4ncco4)C(=O)N(S(=O)(=O)c4ccc(OC)cc4)c4ccc(C#N)cc43)c2)CC1` (stereo partly drawn) [Example 221, 5-Cyano-3-[5-(4-ethylpiperazin-1-ylmethyl)-2-methoxyphenyl]-3-((2S,4R)-4-hydroxy-2-oxazol-2-yl-pyrrolidin-1-yl)-1-(4-methoxybenzenesulfonyl)-2,3-dihydro-1H-indol-2-one] was < 10 nM; that for `COc1ccc(S(=O)(=O)N2C(=O)C(c3cc(CN4CCN(CCO)CC4)ccc3OC)(N3C[C@H](O)C[C@H]3c3ncco3)c3cc(C#N)ccc32)cc1` (stereo partly drawn) [Example 222, 5-Cyano-3-{5-[4-(2-hydroxyethyl)piperazin-1-ylmethyl]-2-methoxyphenyl}-3-((2S,4R)-4-hydroxy-2-oxazol-2-yl-pyrrolidin-1-yl)-1-(4-methoxybenzenesulfonyl)-2,3-dihydro-1H-indol-2-one] was 10 to 100 nM. As to `COc1ccc(S(=O)(=O)N2C(=O)C(c3cc(CN(C)C)ccc3OC)(N3C[C@H](OC)C[C@H]3c3ncco3)c3cc(Cl)ccc32)cc1` (stereo partly drawn) [Example 223, 5-Chloro-3-(5-dimethylaminomethyl-2-methoxyphenyl)-1-(4-methoxybenzenesulfonyl)-3-((2S,4R)-4-methoxy-2-oxazol-2-yl-pyrrolidin-1-yl)-1,3-dihydroindol-2-one], the Ki was < 10 nM. For `COc1ccc(S(=O)(=O)N2C(=O)C(c3cc(CN4CCN(C)CC4)ccc3OC)(N3C[C@H](OC)C[C@H]3c3ncco3)c3cc(Cl)ccc32)cc1` (stereo partly drawn) [Example 224, 5-Chloro-1-(4-methoxybenzenesulfonyl)-3-[2-methoxy-5-(4-methylpiperazin-1-ylmethyl)phenyl]-3-((2S,4R)-4-methoxy-2-oxazol-2-yl-pyrrolidin-1-yl)-1,3-dihydroindol-2-one] the value was < 10 nM; for `COc1ccc(S(=O)(=O)N2C(=O)C(c3cc(CN4CCN(C)CC4)ccc3OC)(N3CCC[C@@]3(C)c3ncco3)c3cc(Cl)ccc32)cc1` (stereo partly drawn) [Example 225, 5-Chloro-1-(4-methoxybenzenesulfonyl)-3-[2-methoxy-5-(4-methylpiperazin-1-ylmethyl)phenyl]-3-((S)-2-methyl-2-oxazol-2-yl-pyrrolidin-1-yl)-1,3-dihydroindol-2-one], 10 to 100 nM.

As for `COc1ccc(S(=O)(=O)N2C(=O)C(c3cc(CN4CCN(CCO)CC4)ccc3OC)(N3CCC[C@@]3(C)c3ncco3)c3cc(Cl)ccc32)cc1` (stereo partly drawn) [Example 226, 5-Chloro-3-{5-[4-(2-hydroxyethyl)piperazin-1-ylmethyl]-2-methoxyphenyl}-1-(4-methoxybenzenesulfonyl)-3-((S)-2-methyl-2-oxazol-2-yl-pyrrolidin-1-yl)-1,3-dihydroindol-2-one], the Ki is < 10 nM. The value for `CNCc1ccc(OC)c(C2(N3CCC[C@@]3(C)c3ncco3)C(=O)N(S(=O)(=O)c3ccc(OC)cc3)c3ccc(Cl)cc32)c1` (stereo partly drawn) [Example 227, 5-Chloro-1-(4-methoxybenzenesulfonyl)-3-(2-methoxy-5-methylaminomethylphenyl)-3-((S)-2-methyl-2-oxazol-2-yl-pyrrolidin-1-yl)-1,3-dihydroindol-2-one] was < 10 nM. For `COc1ccc(S(=O)(=O)N2C(=O)C(c3cc(CN4CCN(C)CC4)ccc3OC)(N3C[C@H](F)C[C@H]3c3ncco3)c3cc(C#N)ccc32)cc1` (stereo partly drawn) [Example 228, 5-Cyano-3-((2S,4R)-4-fluoro-2-oxazol-2-yl-pyrrolidin-1-yl)-1-(4-methoxybenzenesulfonyl)-3-[2-methoxy-5-(4-methylpiperazin-1-ylmethyl)phenyl]-1,3-dihydroindol-2-one] the value was 10 to 100 nM. For `COc1ccc(S(=O)(=O)N2C(=O)C(c3cc(CN4CCN(CCO)CC4)ccc3OC)(N3C[C@H](F)C[C@H]3c3ncco3)c3cc(C#N)ccc32)cc1` (stereo partly drawn) [Example 229, 5-Cyano-3-((2S,4R)-4-fluoro-2-oxazol-2-yl-pyrrolidin-1-yl)-3-{5-[4-(2-hydroxyethyl)piperazin-1-ylmethyl]-2-methoxyphenyl}-1-(4-methoxybenzenesulfonyl)-1,3-dihydroindol-2-one] the value was 10 to 100 nM.
